How the values were obtained:
[1] = target: recombinant human HDAC6 (Homo sapiens (Human), UniProt Q9UBN7); assay: Enzymatic screening, HDAC6 inhibition (fluorogenic FdL_G substrate); assay type: biochemical
Procedure, shortened: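 Enzyme was preincubated with compound (8 doses, triplicate, 1% DMSO) in 25 mM Tris-HCl pH 8, 130 mM NaCl, 0.05% Tween-20, 10% glycerol, with BSA. A FLUOR DE LYS-Green substrate was then added, and fluorescence was read after developer plus 2 μM TSA.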

[2] = target: recombinant human HDAC1 (Homo sapiens (Human), UniProt Q13547); assay: Enzymatic screening, HDAC1 inhibition (fluorogenic FdL_G substrate); assay type: biochemical
Chain of recombinant human HDAC1 (Q13547 whole entry): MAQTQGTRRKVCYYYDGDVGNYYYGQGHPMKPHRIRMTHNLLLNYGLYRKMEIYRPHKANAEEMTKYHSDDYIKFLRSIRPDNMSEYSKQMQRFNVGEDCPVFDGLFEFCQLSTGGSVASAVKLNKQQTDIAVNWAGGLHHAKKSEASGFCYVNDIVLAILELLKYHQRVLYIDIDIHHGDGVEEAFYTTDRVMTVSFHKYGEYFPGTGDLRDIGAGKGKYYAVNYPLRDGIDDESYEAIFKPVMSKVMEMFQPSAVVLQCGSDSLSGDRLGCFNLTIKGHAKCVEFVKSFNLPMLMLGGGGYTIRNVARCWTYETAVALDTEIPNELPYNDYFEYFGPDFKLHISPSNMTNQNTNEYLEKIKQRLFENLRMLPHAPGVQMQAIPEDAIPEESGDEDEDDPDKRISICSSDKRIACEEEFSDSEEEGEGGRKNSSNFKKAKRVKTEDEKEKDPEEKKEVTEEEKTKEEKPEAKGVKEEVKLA
Procedure, shortened: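 Recombinant human HDAC1 inhibition was measured fluorometrically using the FLUOR DE LYS-Green (FdL_G) substrate. Compounds at 8 doses (1% DMSO final) in Tris-HCl pH 8 buffer with NaCl, Tween-20 and glycerol were preincubated in triplicate with enzyme and 1 mg/mL BSA, then given substrate. Developer I plus 2 μM TSA was added, and fluorescence read after 25 minutes in the dark.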

[3] = target: HDAC2 (Homo sapiens (Human), UniProt Q92769); assay: Enzymatic screening, HDAC2 inhibition; assay type: biochemical
Chain of HDAC2 (Q92769 whole entry, canonical isoform): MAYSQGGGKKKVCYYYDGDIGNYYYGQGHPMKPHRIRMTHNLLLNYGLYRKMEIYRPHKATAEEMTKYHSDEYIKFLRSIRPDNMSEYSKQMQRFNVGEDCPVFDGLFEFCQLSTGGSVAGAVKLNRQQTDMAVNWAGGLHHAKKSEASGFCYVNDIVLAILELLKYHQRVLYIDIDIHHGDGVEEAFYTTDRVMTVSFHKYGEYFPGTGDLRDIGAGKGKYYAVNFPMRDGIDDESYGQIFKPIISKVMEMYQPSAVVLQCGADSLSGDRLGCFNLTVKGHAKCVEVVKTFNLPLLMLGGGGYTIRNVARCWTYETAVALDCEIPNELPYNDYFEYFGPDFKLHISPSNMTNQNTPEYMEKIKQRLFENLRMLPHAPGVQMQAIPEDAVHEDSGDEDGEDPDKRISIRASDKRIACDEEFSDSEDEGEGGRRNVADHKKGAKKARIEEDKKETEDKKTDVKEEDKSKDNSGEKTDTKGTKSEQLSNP
Experimental: (§1) For each test compound, 100× concentrated DMSO solutions at 8 doses were prepared and then diluted in assay buffer (25 mM Tris-HCl, pH 8, 130 mM NaCl, 0.05% Tween-20, 10% Glycerol) to obtain 5× concentrated solutions in relation to the final concentrations (typical final concentration range—6.4-200000 nM or 0.18-50000 nM, final DMSO content—1%). Then 10 μL solution of each test compound concentration were placed on a 96-well plate in triplicate and 15 μL of 3.33× concentrated enzyme solution in the assay buffer containing 3.33× concentrated BSA (final BSA concentration—2 mg/mL for HDAC4, HDAC5 and HDAC9 or 1 mg/mL for other isoforms) and in the case of HDAC6-3.33× concentrated TCEP (final TCEP concentration—200 μM) were added to each well. After a period of preincubation (incubation times and temperatures vary for different isoforms and are shown in table 1) 25 μL of solution containing the substrate were added. As substrate, FLUOR DE LYS® deacetylase substrate (Enzo Life Sciences, cat: BML-KI104, FdL), FLUOR DE LYS®-Green substrate (Enzo Life Sciences, cat: BML-KI572, FdL_G) or Boc-Lys(Tfa)-AMC (Bachem, cat: 4060676.005, Tfal)—2× concentrated solution in assay buffer were used. Following a reaction period (reaction times and temperatures vary for different isoforms and are reported in Table 1), 50 μL of the development solution consisting of concentrate FLUOR DE LYS® developer I (Enzo Life Sciences, ca: BML-KI105), diluted 200 times in buffer (50 mM Tris-HCl, pH 8, 137 mM NaCl, 2.7 mM KCl, 1 mM MgCl2) plus 2 μM TSA was added and, after 25 minutes at room temperature in the dark, using the Victor 1420 Multilabel Counter Perkin Elmer Wallac instrument, the fluorescence reading was carried out.

[4] = target: HDAC3 (Homo sapiens (Human), UniProt O15379); assay: Enzymatic screening, HDAC3 inhibition; assay type: biochemical
Chain of HDAC3 (O15379 whole entry): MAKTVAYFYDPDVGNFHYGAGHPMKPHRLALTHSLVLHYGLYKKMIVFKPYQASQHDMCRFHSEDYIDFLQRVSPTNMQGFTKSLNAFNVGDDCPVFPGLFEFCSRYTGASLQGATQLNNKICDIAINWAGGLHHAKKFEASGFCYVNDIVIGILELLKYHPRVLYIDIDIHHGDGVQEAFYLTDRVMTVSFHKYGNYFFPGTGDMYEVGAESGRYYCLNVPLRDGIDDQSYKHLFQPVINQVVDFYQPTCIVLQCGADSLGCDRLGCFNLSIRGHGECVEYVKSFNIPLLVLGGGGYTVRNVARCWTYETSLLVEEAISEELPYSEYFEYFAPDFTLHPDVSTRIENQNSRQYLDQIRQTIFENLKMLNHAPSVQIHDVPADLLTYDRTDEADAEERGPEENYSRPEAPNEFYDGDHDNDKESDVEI
Chain of HDAC3 (Q9Y618 395-489 partner): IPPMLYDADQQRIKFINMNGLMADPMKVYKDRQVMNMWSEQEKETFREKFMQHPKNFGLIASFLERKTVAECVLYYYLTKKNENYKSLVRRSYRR
Experimental: as §1

[5] = target: HDAC4 (Homo sapiens (Human), UniProt P56524); assay: Enzymatic screening, HDAC4 inhibition; assay type: biochemical
Experimental: as §1

[6] = target: HDAC5 (Homo sapiens (Human), UniProt Q9UQL6); assay: Enzymatic screening, HDAC5 inhibition; assay type: biochemical
Chain of HDAC5 (Q9UQL6 whole entry): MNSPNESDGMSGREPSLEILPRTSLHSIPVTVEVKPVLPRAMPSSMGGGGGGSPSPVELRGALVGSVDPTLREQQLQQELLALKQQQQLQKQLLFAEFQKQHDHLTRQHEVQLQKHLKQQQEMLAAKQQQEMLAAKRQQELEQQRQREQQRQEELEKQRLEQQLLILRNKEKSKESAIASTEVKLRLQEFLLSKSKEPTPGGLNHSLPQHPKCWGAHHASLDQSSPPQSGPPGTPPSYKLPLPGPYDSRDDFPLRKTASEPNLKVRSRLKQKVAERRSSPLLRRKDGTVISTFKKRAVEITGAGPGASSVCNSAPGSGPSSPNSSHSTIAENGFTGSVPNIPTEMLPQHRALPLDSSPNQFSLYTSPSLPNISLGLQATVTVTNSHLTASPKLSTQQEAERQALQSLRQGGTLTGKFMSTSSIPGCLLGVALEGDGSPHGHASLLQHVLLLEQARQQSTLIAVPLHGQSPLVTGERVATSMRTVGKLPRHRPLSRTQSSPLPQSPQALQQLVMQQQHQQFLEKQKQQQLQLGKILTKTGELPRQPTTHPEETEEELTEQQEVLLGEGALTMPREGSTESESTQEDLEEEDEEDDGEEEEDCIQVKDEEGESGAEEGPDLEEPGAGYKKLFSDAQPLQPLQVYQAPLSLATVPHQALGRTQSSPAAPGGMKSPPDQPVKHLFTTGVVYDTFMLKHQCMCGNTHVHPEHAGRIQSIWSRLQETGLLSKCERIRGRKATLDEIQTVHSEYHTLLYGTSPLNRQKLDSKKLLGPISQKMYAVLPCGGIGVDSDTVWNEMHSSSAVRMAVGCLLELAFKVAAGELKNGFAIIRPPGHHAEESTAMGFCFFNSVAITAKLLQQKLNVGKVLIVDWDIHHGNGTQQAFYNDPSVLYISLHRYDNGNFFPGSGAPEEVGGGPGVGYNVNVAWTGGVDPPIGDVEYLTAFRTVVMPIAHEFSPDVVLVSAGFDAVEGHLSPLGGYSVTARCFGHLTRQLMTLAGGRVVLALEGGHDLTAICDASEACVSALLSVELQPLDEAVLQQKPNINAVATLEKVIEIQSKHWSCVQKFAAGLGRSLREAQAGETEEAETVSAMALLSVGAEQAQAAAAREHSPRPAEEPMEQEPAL
Experimental: as §1

[7] = target: HDAC7 (Homo sapiens (Human), UniProt Q8WUI4); assay: Enzymatic screening, HDAC7 inhibition; assay type: biochemical
Experimental: as §1

[8] = target: HDAC8 (Homo sapiens (Human), UniProt Q9BY41); assay: Enzymatic screening, HDAC8 inhibition; assay type: biochemical
Chain of HDAC8 (Q9BY41 whole entry): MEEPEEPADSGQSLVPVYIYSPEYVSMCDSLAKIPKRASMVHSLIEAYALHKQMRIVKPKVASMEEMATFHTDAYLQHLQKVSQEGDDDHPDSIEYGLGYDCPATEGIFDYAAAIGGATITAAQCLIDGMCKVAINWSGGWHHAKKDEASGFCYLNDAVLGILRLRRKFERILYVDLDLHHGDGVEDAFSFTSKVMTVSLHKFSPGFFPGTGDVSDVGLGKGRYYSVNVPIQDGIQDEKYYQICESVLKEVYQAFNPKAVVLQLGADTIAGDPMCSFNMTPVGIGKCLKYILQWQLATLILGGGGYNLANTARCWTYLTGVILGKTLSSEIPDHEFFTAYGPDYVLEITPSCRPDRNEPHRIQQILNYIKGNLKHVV
Experimental: as §1

[9] = target: HDAC9 (Homo sapiens (Human), UniProt Q9UKV0); assay: Enzymatic screening, HDAC9 inhibition; assay type: biochemical
Chain of HDAC9 (Q9UKV0 whole entry): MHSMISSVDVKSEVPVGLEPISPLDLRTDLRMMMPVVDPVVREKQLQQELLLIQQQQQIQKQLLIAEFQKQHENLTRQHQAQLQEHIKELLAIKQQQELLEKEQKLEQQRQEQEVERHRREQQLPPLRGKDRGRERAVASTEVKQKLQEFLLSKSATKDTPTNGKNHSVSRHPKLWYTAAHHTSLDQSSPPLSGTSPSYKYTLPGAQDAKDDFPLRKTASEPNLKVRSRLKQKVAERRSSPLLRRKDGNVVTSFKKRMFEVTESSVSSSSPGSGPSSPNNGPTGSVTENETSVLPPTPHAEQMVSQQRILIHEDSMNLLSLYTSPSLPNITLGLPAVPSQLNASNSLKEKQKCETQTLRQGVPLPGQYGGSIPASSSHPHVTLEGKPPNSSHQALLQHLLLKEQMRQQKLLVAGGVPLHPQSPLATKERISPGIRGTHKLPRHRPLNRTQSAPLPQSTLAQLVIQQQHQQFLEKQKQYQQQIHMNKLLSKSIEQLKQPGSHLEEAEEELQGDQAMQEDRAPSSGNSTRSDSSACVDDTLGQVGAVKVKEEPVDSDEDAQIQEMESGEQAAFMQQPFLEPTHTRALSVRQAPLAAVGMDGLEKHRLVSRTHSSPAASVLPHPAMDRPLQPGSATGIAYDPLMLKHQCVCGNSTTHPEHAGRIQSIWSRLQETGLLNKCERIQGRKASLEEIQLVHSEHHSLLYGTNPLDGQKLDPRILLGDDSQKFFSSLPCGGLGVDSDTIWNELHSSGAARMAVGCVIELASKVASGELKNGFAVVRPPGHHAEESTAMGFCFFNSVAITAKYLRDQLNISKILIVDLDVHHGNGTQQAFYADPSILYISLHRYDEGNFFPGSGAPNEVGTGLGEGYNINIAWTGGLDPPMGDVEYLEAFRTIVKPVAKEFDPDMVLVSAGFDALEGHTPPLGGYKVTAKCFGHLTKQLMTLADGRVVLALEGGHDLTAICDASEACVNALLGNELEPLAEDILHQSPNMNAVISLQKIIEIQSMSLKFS
Experimental: as §1

[10] = target: HDAC10 (Homo sapiens (Human), UniProt Q969S8); assay: Enzymatic screening, HDAC10 inhibition; assay type: biochemical
Chain of HDAC10 (Q969S8 whole entry): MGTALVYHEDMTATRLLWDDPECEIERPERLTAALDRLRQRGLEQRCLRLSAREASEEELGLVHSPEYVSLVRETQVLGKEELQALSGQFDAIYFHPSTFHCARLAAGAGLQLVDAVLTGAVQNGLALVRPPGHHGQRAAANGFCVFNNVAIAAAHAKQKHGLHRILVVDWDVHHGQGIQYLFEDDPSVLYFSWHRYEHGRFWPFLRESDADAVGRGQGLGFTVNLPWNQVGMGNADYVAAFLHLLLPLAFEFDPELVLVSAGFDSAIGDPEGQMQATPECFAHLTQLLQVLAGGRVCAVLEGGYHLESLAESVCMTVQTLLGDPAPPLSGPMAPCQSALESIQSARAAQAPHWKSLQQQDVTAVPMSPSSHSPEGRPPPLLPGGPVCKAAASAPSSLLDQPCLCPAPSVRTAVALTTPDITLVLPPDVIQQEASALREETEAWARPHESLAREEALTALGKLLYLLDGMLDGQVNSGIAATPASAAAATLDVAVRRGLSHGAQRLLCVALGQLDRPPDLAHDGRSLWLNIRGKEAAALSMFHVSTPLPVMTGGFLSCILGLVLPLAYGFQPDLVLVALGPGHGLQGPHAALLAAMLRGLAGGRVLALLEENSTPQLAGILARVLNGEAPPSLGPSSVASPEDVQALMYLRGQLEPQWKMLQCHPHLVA
Experimental: as §1

[11] = target: HDAC11 (Homo sapiens (Human), UniProt Q96DB2); assay: Enzymatic screening, HDAC11 inhibition; assay type: biochemical
Chain of HDAC11 (Q96DB2 whole entry): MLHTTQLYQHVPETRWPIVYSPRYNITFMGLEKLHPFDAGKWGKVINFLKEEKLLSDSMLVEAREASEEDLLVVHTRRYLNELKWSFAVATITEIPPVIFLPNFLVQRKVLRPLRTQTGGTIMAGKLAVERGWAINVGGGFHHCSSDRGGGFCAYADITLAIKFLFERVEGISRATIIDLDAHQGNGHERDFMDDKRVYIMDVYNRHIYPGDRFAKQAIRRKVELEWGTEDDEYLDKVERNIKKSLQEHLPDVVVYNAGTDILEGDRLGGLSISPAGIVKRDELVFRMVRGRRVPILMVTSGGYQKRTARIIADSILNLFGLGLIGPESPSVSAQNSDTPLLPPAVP
Experimental: as §1

[12] = test system: α-tubulin acetylation in 697 cell line; assay: In vitro α-tubulin acetylation in 697 cell line (ELISA); assay type: cell-based; details: 16 hours, read-out: fold increase @ 1 uM TubAc (ratio of acetylated tubulin and total tubulin towards control)
Procedure, shortened: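 B 697 cells in RPMI 10% FCS were treated for 16 h at 37 °C with compound at 1000, 333, 111 or 37 nM. Lysate (0.3 μg protein) was coated and probed by ELISA for acetylated and total α-tubulin, read at 450 nm. The acetylated/total ratio is given as fold over untreated control.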

[13] = Stability in rat plasma; details: after 4 hours, 37° C.
Experimental: In order to evaluate the stability to circulating enzymes, test compounds were incubated in human and rat plasma at 37° C. in a thermostated oscillating bath. Each test compound was incubated at μM concentration (50 μM when the samples were analysed by UV/HPLC, 1 or 2 μM when the samples were analysed by LC-MS/MS) for 0, 15, 30 minutes and 1, 2 and 4 hours. The reaction was stopped placing samples on ice bath and adding acidified acetonitrile. After centrifugation (10 minutes at 14000 rpm) an aliquot of the supernatant was diluted with water, filtered with 0.45 μm regenerated cellulose syringe filters and injected in HPLC-UV or in LC-MS/MS. The percentage of the remaining amount at the various incubation times with respect to the initial amount were calculated. The half-life in plasma was also calculated.

[14] = Stability in human plasma; details: after 4 hours, 37° C.
[15] = Stability to Phase I metabolism in rat S9 liver fraction; details: after 90 minutes, 37° C.
[16] = Stability to Phase I metabolism in human S9 liver fraction; details: after 90 minutes, 37° C.

IC50 [1] [µM] | IC50 [2] [µM] | IC50 [3] [µM] | IC50 [4] [µM] | IC50 [5] [µM] | IC50 [6] [µM] | IC50 [7] [µM] | IC50 [8] [µM] | IC50 [9] [µM] | IC50 [10] [µM] | IC50 [11] [µM] | residual percentage in RAT PLASMA [13] [%] | residual percentage in HUMAN PLASMA [14] [%] | residual percentage in RAT S9 FRACTION [15] [%] | residual percentage in HUMAN S9 FRACTION [16] [%] | Compound | fold induction at 1 µM [12]
0.013 | > 200 | > 30 | > 30 | > 30 | > 30 | > 30 | > 200 | > 30 | > 30 | > 30 | 93 | 93 | 93 | 99 | O=C(Nc1cccc(-c2cn(Cc3ccc(-c4nnc(C(F)F)o4)cn3)nn2)c1)N1CCOCC1 [compound 6, N-(3-(1-((5-(5-(difluoromethyl)-1,3,4-oxadiazol-2-yl)pyridin-2-yl)methyl)-1H-1,2,3-triazol-4-yl)phenyl)morpholine-4-carboxamide] | 19
0.013 | > 200 | > 30 | > 30 | > 30 | > 30 | > 30 | > 200 | > 30 | > 30 | > 30 | 81 | 76 | 96 | 92 | Nc1nc2cc(-c3nnn(Cc4ccc(-c5nnc(C(F)F)o5)cn4)n3)ccc2o1 [compound 7, 5-(2-((5-(5-(difluoromethyl)-1,3,4-oxadiazol-2-yl)pyridin-2-yl)methyl)-2H-tetrazol-5-yl)benzo[d]oxazol-2-amine] | 16
0.016 | > 200 | > 30 | > 30 | > 30 | > 30 | > 30 | 29.5 | > 30 | > 30 | > 30 | 97 | 89 | 95 | 95 | FC(F)c1nnc(-c2ccc(Cn3cc(-c4ccc(NC5=NCCN5)cc4)nn3)cc2)o1 [compound 10, N-(4-(1-(4-(5-(difluoromethyl)-1,3,4-oxadiazol-2-yl)benzyl)-1H-1,2,3-triazol-4-yl)phenyl)-4,5-dihydro-1H-imidazol-2-amine] | 11
0.019 | > 200 | > 30 | > 30 | > 30 | > 30 | > 30 | > 200 | > 30 | > 30 | > 30 | 86 | 83 | 90 | 70 | Cn1c(N)nc2cc(-c3nnn(Cc4ccc(-c5nnc(C(F)F)o5)cc4)n3)ccc21 [compound 11, 5-(2-(4-(5-(difluoromethyl)-1,3,4-oxadiazol-2-yl)benzyl)-2H-tetrazol-5-yl)-1-methyl-1H-benzo[d]imidazol-2-amine] | 18
0.02 | > 200 | > 30 | > 30 | > 30 | > 30 | > 30 | > 200 | > 30 | > 30 | > 30 | 86 | 82 | 98 | 96 | Nc1ccc(-c2cn(Cc3ccc(-c4nnc(C(F)F)o4)cn3)cn2)cn1 [compound 12, 5-(1-((5-(5-(difluoromethyl)-1,3,4-oxadiazol-2-yl)pyridin-2-yl)methyl)-1H-imidazol-4-yl)pyridin-2-amine] | 11
0.023 | > 200 | > 30 | > 30 | > 30 | > 30 | > 30 | 197 | > 30 | > 30 | > 30 | 75 | 78 | 98 | 97 | Nc1ccc(-c2cnn(Cc3ccc(-c4nnc(C(F)F)o4)cn3)c2)cn1 [compound 13, 5-(1-((5-(5-(difluoromethyl)-1,3,4-oxadiazol-2-yl)pyridin-2-yl)methyl)-1H-pyrazol-4-yl)pyridin-2-amine] | 16
0.029 | > 200 | > 30 | > 30 | > 30 | > 30 | > 30 | > 200 | > 30 | > 30 | > 30 | 84 | 75 | 88 | 86 | O=C(Nc1cccc(-c2cn(Cc3ccc(-c4nnc(C(F)F)o4)c(F)c3)nn2)c1)N1CCOCC1 [compound 16, N-(3-(1-(4-(5-(difluoromethyl)-1,3,4-oxadiazol-2-yl)-3-fluorobenzyl)-1H-1,2,3-triazol-4-yl)phenyl)morpholine-4-carboxamide] | 19
0.008 | > 200 | > 30 | > 30 | > 30 | > 30 | > 30 | > 200 | > 30 | > 30 | > 30 | 69 | 84 | 91 | 82 | CCNc1nc2ccc(-c3cn(Cc4ccc(-c5nnc(C(F)F)o5)cn4)nn3)cc2[nH]1 [compound 18, 5-(1-((5-(5-(difluoromethyl)-1,3,4-oxadiazol-2-yl)pyridin-2-yl)methyl)-1H-1,2,3-triazol-4-yl)-N-ethyl-1H-benzo[d]imidazol-2-amine] | 11
0.011 | > 200 | > 30 | > 30 | > 30 | > 30 | > 30 | 578 | > 30 | > 30 | > 30 | 82 | 97 | 93 | 99 | FC(F)c1nnc(-c2ccc(Cn3cnc(-c4ccc(NC5=NCCN5)cc4)c3)nc2)o1 [compound 20, N-(4-(1-((5-(5-(difluoromethyl)-1,3,4-oxadiazol-2-yl)pyridin-2-yl)methyl)-1H-imidazol-4-yl)phenyl)-4,5-dihydro-1H-imidazol-2-amine] | 11

— patent US20230286970A1, “NOVEL OXADIAZOLE-BASED SELECTIVE HDAC6 INHIBITORS” (ITALFARMACO S.P.A., priority 2020, published 2023)
